# Assay results from article PMC7461020 (The EMBO Journal, 2020).
# Entries after “also recorded” stand apart in the source; their conditions may differ.
# Experiments:
# [1] = system: SARS-CoV-2; assay type: cell-based
# [2] = system: Vero cells
# [3] = system: SARS-CoV-2; assay type: cell-based; remark: listed apart in the source
compound,measurement,setting,value
CC(c1cccc2ccccc12)N1CCC(C(=O)NCc2cccc(F)c2)CC1 (stereo not drawn) [rac3k],CPE reduction at lower concentrations,[1],diminished
same,Effect on SARS-CoV-2-induced CPE,[1],significantly rescued infected cells; also recorded: reduced SARS‐CoV‐2‐induced CPE
same,Remaining cell death,[1],around 20%
same,Toxicity on Vero cells,[2],no toxicity
same,Cellular toxicity,[2]; African green monkey,~25%
"CCN(CCO)CCCC(C)Nc1ccnc2cc(Cl)ccc12 (centres unmarked) [Hydroxychloroquine, reference compound]",Rescue of CPE,[1],~ 90%
same,Reduction of viral titre,[3],10 fold
"CCC(CC)COC(=O)[C@H](C)N[P@](=O)(OC[C@H]1O[C@@](C#N)(c2ccc3c(N)ncnn23)[C@H](O)[C@@H]1O)Oc1ccccc1 [Remdesivir, reference compound]",Reversal of SARS-CoV-2 induced CPE,[1],~ 90%
